Laboratory results reported in patent US20260102460A1, “NOVEL COMBINATIONS OF ANTIBIOTICS AND NON-ANTIBIOTIC DRUGS EFFECTIVE IN VIVO AGAINST GRAM-POSITIVE BACTERIA, IN PARTICULAR METHICILLIN-RESISTANT S. AUREUS (MRSA)” (EUROPEAN MOLECULAR BIOLOGY LABORATORY, priority 2022, published 2026).

Experiments:
S. aureus Newman [1] = assay: Two-dimensional thermal proteome profiling (2D-TPP), whole cell and lysate; assay type: cell-based, Staphylococcus aureus; details: for thermal stability of ATP- and GTP-binding enzymes and transporters: ticagrelor 0.04-4 μg/ml
MRSA = details: ticagrelor 10 μg/mL combined with vancomycin 4 μg/mL; cited from earlier work
S. aureus Newman [2] = assay: Cytochrome c binding assay (cell surface charge); assay type: cell-based, Staphylococcus aureus; details: ticagrelor 10 and 5 μg/ml for 20 minutes
Protocol: The cytochrome c binding assay was conducted as previously described (Radlinski, L. C. et al. Chemical Induction of Aminoglycoside Uptake Overcomes Antibiotic Tolerance and Resistance in Staphylococcus aureus. Cell Chem Biol 26, 1355-1364.e4 (2019)). Briefly, overnight cultures of S. aureus Newman were diluted 1:1000 in 20 ml of TSB medium and grown in flasks at 37° C. with continuous shaking until they reached OD578 nm˜0.45. Samples were then incubated in the same conditions with or without 10 and 5 μg/ml ticagrelor for 20 minutes. Samples were centrifuged at 10000 g for 15 minutes, washed twice with 20 mM MOPS buffer (pH 7) and concentrated to reach a final A578 of 10 in a 96 well-plate (ref. 4483481, Applied Biosystems™) containing cytochrome c (0.25 mg/ml, ref. 101467, MP Bio) or MOPS buffer (FIG. 5g). The plate was incubated in the dark at room temperature for 10 minutes. The cell pellets were collected, and the amount of cytochrome c in the supernatant was determined spectrophotometrically at an OD410 nm. Two-fold dilutions of cytochrome c in the same plate, starting from 256 μg/ml, were used to obtain a standard curve onto which a linear model was fitted to calculate cytochrome c concentrations in the other wells. Results are expressed as unbound cytochrome c fraction in the supernatants. Experiments were conducted in four biological replicates.

S. aureus Newman [3] = assay: Ticagrelor MIC upon purine supplementation; assay type: cell-based, Staphylococcus aureus; details: supplementation with adenosine, inosine or their combination; SSM9PR medium with 1% glucose
Protocol: MICs were tested in all strains for the main screen. Drugs were two-fold serially diluted in 11 concentrations, and 32 no-drug control wells were included in each plate. Experiments were conducted in 384-well plates (ref. 781271 by Greiner BioOne), with a total volume of 30 μl for S. aureus and B. subtilis and 55 μl for S. pneumoniae. Volumes were optimized for each strain to achieve good dynamic range for growth and minimize risk of cross-contamination between wells. Plates were inoculated with a starting optical density at 595 nm (OD595 nm) of 0.01 from an overnight culture. All liquid handling was performed using a Biomek FX liquid handler (Beckman Coulter). Plates were sealed with breathable membranes and incubated at 37° C. OD595 nm was measured every 30 minutes for 14 hours. The MIC was considered as the first concentration at which growth was inhibited. Experiments were conducted in biological duplicates. For the adjuvant screen, antibiotics were tested in S. aureus DSM 20231 at the same concentrations as for the main screen. Non-antibiotics concentrations were selected to fall within therapeutic ranges.
Ticagrelor (ref. SML2482, Sigma-Aldrich) MIC was measured upon purine supplementation in S. aureus Newman as described above in SSM9PR minimal medium supplemented with 1% glucose79, in 384-well plates (ref. 781271 by Greiner BioOne) with a final volume of 30 μl. […]

Structure (SMILES): CCCSc1nc(N[C@@H]2C[C@H]2c2ccc(F)c(F)c2)c2nnn([C@@H]3C[C@H](OCCO)[C@@H](O)[C@H]3O)c2n1 [ticagrelor]
- abundance of purine biosynthesis enzymes (PurC, PurD, PurE, PurF, PurK, PurL, PurM, PurN, PurQ) (S. aureus Newman [1]; live cells): induction
- thermal stability of DltC and DltD (LTA D-alanylation) (S. aureus Newman [1]; lysate): destabilized
- thermal stability of ClfA, ClfB, coagulase Coa and vWBP (S. aureus Newman [1]; lysate, clinically-relevant ticagrelor concentration): destabilization
- thermal stability of ATP- and GTP-binding enzymes and transporters (S. aureus Newman [1]; lysate): destabilization
- thermal stability of TagG (WTA translocase subunit) (S. aureus Newman [1]; whole cell sample): destabilized
- thermal stability of ATP- and GTP-binding enzymes and transporters (S. aureus Newman [1]; whole cell): destabilization
- abundance of ClfA, ClfB, coagulase Coa and vWBP (S. aureus Newman [1]; whole-cell samples, clinically-relevant ticagrelor concentration): downregulation
- initial MRSA inoculum killed (MRSA): approximately 50%
- binding of positively-charged cytochrome C to intact S. aureus cells (S. aureus Newman [2]): increased
- change of MIC upon purine supplementation (S. aureus Newman [3]): increased
